Source: US11260100B2, “Compositions targeting the interaction domain between p27Kip1 and Brk and methods of use thereof to inhibit p27 Y phosphorylation and cdk4 activity” (The Research Foundation for the State University of New York, priority 2014, dated 2022)

Test system: MCF7 mock, WT, KM and YF cells
Assay: Viability of PD0332991 treated Brk expressing MCF7 lines
Type: cell-based, human
Conditions: all concentrations of the drug
Description: The PCR fragments were ligated to the T7pGEMEX human His-p27 or T7pGEMEX human Flag-p27 plasmid for expression in E. coli. Mutants Y74F, Y88F, and Y88/89F were previously described (12). Flag-tagged p27 mutants were purified by Flag-immunoprecipitation with Flag antibody (M-2, Sigma F-18C9) and eluted with Flag peptide (Sigma F-4799) according to manufacturer's protocol. His-tagged p27 mutants were purified by FPLC via his-trap affinity chromatography (His-Trap HP, GE Healthcare 71-5247-01). The affinity column was stripped according to manufacturer's protocol, then washed with 5 column volumes of 100 mM CoCl2. The crude material was applied with a loading buffer consisting of 6 M urea, 500 mM NaCl, 50 mM Tris-HCl, pH 7.5 and 20% glycerol. The material was washed with 500 mM NaCl, 50 mM Tris-HCl, pH 7.5 and 10% glycerol. The purified material was eluted with 500 mM imidazole,20 mM Hepes pH 7.4 and 1 M KCl. The protein was then dialyzed overnight in a solution of 25 mM Hepes pH 7.7, 150 mM NaCl, 5 mM MgCl2 and 0.05% NP40. All purified proteins were analyzed by Coomassie and immunoblot analysis. […] Cells were counted using the automated cell counter (BioRad TC-20).Viability was measured by Trypan Blue staining and counted using the cell counter. • Immunoprecipitation. […]

For `CC(=O)c1c(C)c2cnc(Nc3ccc(N4CCNCC4)cn3)nc2n(C2CCCC2)c1=O` [PD0332991], the viability was “unchanged”.
